# Results from ChEMBL document CHEMBL5058564, “EUbOPEN Chemogenomics Library 2 (Incucyte)” (2022).
# Experiments:
# Format in all cases: toxicity, cell-based
# HEK-293T = experiment: Incucyte cell viability with HEK293T; details: human, 10 µM, compound concentration 10 uM
# Fibroblast = experiment: Incucyte cell viability with human fibroblast; details: 10 µM, compound concentration 10 uM
# U2OS = experiment: Incucyte cell viability with U2OS; details: human, 10 µM, compound concentration 10 uM
# [1] = 0 h, replicate number 1, timepoint 0 hours
# [2] = 0 h, replicate number 2, timepoint 0 hours
# [3] = 18 h, replicate number 1, timepoint 18 hours
# [4] = 24 h, replicate number 1, timepoint 24 hours
# [5] = 6 h, replicate number 1, timepoint 6 hours
# [6] = 12 h, replicate number 1, timepoint 12 hours
# [7] = 12 h, replicate number 2, timepoint 12 hours
# [8] = 6 h, replicate number 2, timepoint 6 hours
# [9] = 18 h, replicate number 2, timepoint 18 hours
# [10] = 24 h, replicate number 2, timepoint 24 hours
# Further: unitless GR value; below 1 slowed growth and below 0 cell loss.
Structure (SMILES),Growth Rate (HEK-293T; [1]),Growth Rate (HEK-293T; [2]),Growth Rate (HEK-293T; [3]),Growth Rate (HEK-293T; [4]),Growth Rate (Fibroblast; [1]),Growth Rate (Fibroblast; [2]),Growth Rate (Fibroblast; [5]),Growth Rate (Fibroblast; [6]),Growth Rate (Fibroblast; [7]),Growth Rate (Fibroblast; [3]),Growth Rate (Fibroblast; [4]),Growth Rate (U2OS; [1]),Growth Rate (U2OS; [2]),Growth Rate (U2OS; [5]),Growth Rate (U2OS; [6]),Growth Rate (U2OS; [3]),Growth Rate (HEK-293T; [6]),Growth Rate (HEK-293T; [10]),Growth Rate (Fibroblast; [8]),Growth Rate (HEK-293T; [5]),further results
Cc1cnc(CNCC2(F)CCN(C(=O)c3ccc(F)c(Cl)c3)CC2)nc1,0.4,0.21,1,0.91,0.31,0.71,0.38,0.81,0.62,0.86,0.5,-0.59,0.21,0.35,0.56,0.81,,,,,Growth Rate (U2OS; [8]): 0.86; Growth Rate (U2OS; [7]): 0.96; Growth Rate (U2OS; [9]): 0.78; Growth Rate (U2OS; [4]): 0.79; Growth Rate (U2OS; [10]): 0.94
CCCN[C@H]1CCc2nc(N)sc2C1.Cl.Cl,0.73,0.77,0.97,0.93,,-0.13,-0.38,0.31,0.7,0.84,,,0.18,,,,0.99,0.81,0.73,,Growth Rate (HEK-293T; [8]): 0.07; Growth Rate (HEK-293T; [7]): 0.53; Growth Rate (HEK-293T; [9]): 0.77; Growth Rate (U2OS; [7]): 0.97; Growth Rate (U2OS; [9]): 0.92
O=C(O)c1ccccc1S(=O)(=O)NCCCCN1C(=O)c2cccc3cccc(c23)C1=O,0.54,0.31,0.82,0.91,0.28,0.58,,,0.94,0.79,,0.34,-0.33,0.57,0.82,0.78,0.9,,0.71,,Growth Rate (HEK-293T; [7]): 0.98; Growth Rate (HEK-293T; [9]): 0.89; Growth Rate (U2OS; [8]): 0.12; Growth Rate (U2OS; [7]): 0.64; Growth Rate (U2OS; [9]): 0.75; Growth Rate (U2OS; [4]): 0.67; Growth Rate (U2OS; [10]): 0.75
CC(C)CCC[C@@H](C)[C@H]1CC[C@H]2[C@@H]3[C@H](O)C=C4C[C@@H](O)CC[C@]4(C)[C@H]3CC[C@]12C,0.95,-0.21,0.84,0.85,,-0.09,0.24,0.24,0.91,0.52,0.5,,0.03,0.98,,,,0.96,0.56,,Growth Rate (Fibroblast; [9]): 0.84; Growth Rate (Fibroblast; [10]): 0.43
Br.Br.c1ncc(CC2CCNCC2)[nH]1,0.53,0.07,0.81,0.95,0.49,0.06,0.88,0.69,0.81,0.72,0.77,0.94,,0.57,0.9,,0.99,0.94,0.53,0.8,Growth Rate (HEK-293T; [7]): 0.73; Growth Rate (HEK-293T; [9]): 0.93; Growth Rate (Fibroblast; [9]): 0.93; Growth Rate (Fibroblast; [10]): 0.76
O=c1ccn([C@@H]2O[C@H](COP(=O)([O-])OP(=O)([O-])OP(=O)([O-])O)[C@@H](O)[C@H]2O)c(=O)[nH]1.[Na+].[Na+].[Na+],0.09,0.62,0.92,0.85,,0.81,0.2,0.12,0.75,0.29,0.13,0.49,0.48,0.21,0.6,0.83,0.84,0.72,0.66,0.64,Growth Rate (HEK-293T; [8]): 0.41; Growth Rate (HEK-293T; [7]): 0.64; Growth Rate (HEK-293T; [9]): 0.75; Growth Rate (Fibroblast; [9]): 0.88; Growth Rate (Fibroblast; [10]): 0.78; Growth Rate (U2OS; [8]): 0.83; Growth Rate (U2OS; [7]): 0.94; Growth Rate (U2OS; [9]): 0.93; Growth Rate (U2OS; [4]): 0.99; Growth Rate (U2OS; [10]): 0.94
CCNC(=O)[C@H]1O[C@@H](n2cnc3c(N)ncnc32)[C@H](O)[C@@H]1O.O,-0.1,-0.27,0.8,0.76,-0.1,0.3,,,0.87,,,-0.43,,0.86,0.61,0.71,0.85,0.81,0.46,0.74,Growth Rate (U2OS; [4]): 0.74
CN(C)CCn1cc(S(=O)(=O)c2cccc(F)c2)c2cccnc21.Cl.Cl,0.41,0.35,,,-0.06,0.07,-0.17,0.56,0.68,0.65,0.75,,,0.56,0.39,0.8,,,0.86,,Growth Rate (HEK-293T; [8]): 0.9; Growth Rate (Fibroblast; [9]): 0.64; Growth Rate (Fibroblast; [10]): 0.57; Growth Rate (U2OS; [8]): 0.76; Growth Rate (U2OS; [7]): 0.98; Growth Rate (U2OS; [4]): 0.86
CCCN(CCC)[C@@H]1CCc2ccc3[nH]c(C#N)cc3c2C1.Cl,0.55,0.54,,1,,-0.06,0.01,,,0.97,0.95,0.61,0.9,0.8,,0.73,0.81,0.95,,0.81,Growth Rate (U2OS; [4]): 0.95
COC(=O)[C@H](CCCNC(=N)N)NC(=O)CCCc1c(-c2ccccc2)[nH]c2c(F)cc(F)cc12.O=C(O)C(F)(F)F,0.87,0.81,0.64,0.66,0.79,0.86,,,0.65,,,-0.03,,0.46,0.64,0.8,0.53,0.53,0.39,0.68,Growth Rate (HEK-293T; [8]): 0.4; Growth Rate (HEK-293T; [7]): 0.32; Growth Rate (HEK-293T; [9]): 0.5; Growth Rate (Fibroblast; [9]): 0.38; Growth Rate (Fibroblast; [10]): 0.46
N=C(N)NCCC[C@H](NC(=O)COCC(c1ccccc1)c1ccccc1)C(=O)O.O=C(O)C(F)(F)F,0.96,0.2,0.84,,,0.91,0.91,0.66,,0.46,0.79,0.29,0.34,0.54,0.84,0.7,0.7,,,1,Growth Rate (U2OS; [8]): 0.72; Growth Rate (U2OS; [7]): 0.86; Growth Rate (U2OS; [9]): 0.91; Growth Rate (U2OS; [4]): 0.8; Growth Rate (U2OS; [10]): 1
CC1(C)SSC(C)(C)[C@@H](NC(=O)[C@@H](N)Cc2ccc(O)cc2)C(=O)NCC(=O)N[C@@H](Cc2ccccc2)C(=O)N[C@H]1C(=O)O.O=C(O)C(F)(F)F,0.77,,0.85,,0.24,0.08,0.67,,,,0.94,,-0.57,,,,,,,0.73,Growth Rate (HEK-293T; [7]): 0.85; Growth Rate (U2OS; [8]): 0.94; Growth Rate (U2OS; [9]): 0.98; Growth Rate (U2OS; [10]): 0.94
O=C([O-])[C@H]1O[C@H](OP(=O)([O-])OP(=O)([O-])OC[C@H]2O[C@@H](n3ccc(=O)[nH]c3=O)[C@H](O)[C@@H]2O)[C@H](O)[C@@H](O)[C@@H]1O.[Na+].[Na+].[Na+],0.81,-0.02,0.64,0.84,,0.57,,,,0.88,0.93,0.32,0.71,0.46,0.9,0.9,0.65,0.91,,0.43,
